# From article PMC7766697, “Toxicological Screening of Four Bioactive Citroflavonoids: In Vitro, In Vivo, and In Silico Approaches” (Molecules, 2020)
# Read-outs that look alike come from different tables or passages of the source.
# Columns and labels:
# VERO cells = test: MTT-based cytotoxicity assay in VERO cells; assay type: cell-based, green Monkey; details: 48 h, 125 to 750 µg/mL (QRT effect at 250–750 µg/mL)
# Experimental: (§1) VERO and MDCK cell lines were acquired from American Type Culture Collection (ATCC, Manassas, VA, USA). […] In vitro cytotoxicity assay was performed on Madin-Darby Canine Kidney Epithelial Cells (MDCK) and green Monkey Kidney Cells (VERO) by MTT-based assay. Briefly, cells were seeded in 96-well plates at a density of 2.5 × 10^3 cells/well. […] The absorbance was measured after 45 min using a microplate reader (Multiskan Asent®) at a wavelength of 550 nm. The criteria for categorizing cytotoxicity against MDCK and VERO cells are based on the U.S. National Cancer Institute (NCI). The criteria comprise as follow: […] All results were expressed as mean ± standard error. The results from the in vivo and in vitro experiments were analyzed using software Origin® 8.0. […] The IC50 (half inhibitory concentration) values were calculated in Origin software®, (Northampton, MA, USA) and one-way ANOVA analysis was compared with cisplatin as the control.
# MDCK cells = test: MTT-based cytotoxicity assay in MDCK cells; assay type: cell-based, Canine; details: 48 h, 125 to 750 µg/mL (QRT effect at 250 and 500 µg/mL)
# Experimental: as §1
# Wistar rats [1] = test: Acute oral toxicity, OECD Test No. 423 (mortality, signs, LD50, body weight); assay type: in vivo
# Experimental: Female Wistar rats (250 g b.w.) were used. These animals were obtained from Bioterium from División de Ciencias de la Salud at the Universidad de Quintana Roo. They were maintained under standard environmental conditions (22 ± 3 °C, 12 h/12 h light/dark cycle), and free access to standard rodent diet and water ad libitum. All animal procedures were conducted under our Federal Regulations for Animal Experimentation and Care and were approved by the Institutional Animal Care and Use Committee of the “Universidad Juárez Autónoma de Tabasco” university (Code:2017-001, Approved: October 2017). Rats were acclimatized for 1 week before the start of experimental procedures.
# The half lethal dose (LD50) was estimated using the fixed-dose method described in OECD Guidelines for the Testing of Chemicals (Test No. 423: Acute Oral Toxicity-Class Method; OECD, 2001). […] This method allowed a step-by-step assay according to the chosen dose to begin the experiment. Subsequently, depending on the presence or absence of mortality, the decision to continue within the next step is taken, so fewer experimental animals should be used.
# (§2) Rats used for this experiment were fasted for 8 h and were organized into two groups of three rats for each dose and each flavonoid. Likewise, the control group received isotonic 0.9% sodium chloride solution (dose: 5 mL/kg). All rats were closely observed for toxic symptoms and behavioral changes (sedation, hyperactivity, writhing, pruritus, feeding and drinking habits, general morphological changes, and bite legs) for 30 min and periodically 24 h post-administration. Animals were observed daily (14 days) and mortality rate recorded. A LD50 was estimated according to criteria of OECD guide 423.
# The rats’ body weight in each group was determined and recorded before the treatment initiation and after 14 days. Changes in the body weight at the end of the 14 days were calculated. Once observation time was completed and to detect any adverse effect, blood samples were collected by cardiac puncture after the previous fasting of 8 h. […] In addition, organ weight was determined.
# Wistar rats [2] = assay type: in vivo; details: rat, in vivo, po
# Experimental: as §2
# The rats’ body weight in each group was determined and recorded before the treatment initiation and after 14 days. Changes in the body weight at the end of the 14 days were calculated. Once observation time was completed and to detect any adverse effect, blood samples were collected by cardiac puncture after the previous fasting of 8 h. For this purpose, rats were anesthetized by intraperitoneally 50 mg/kg sodium pentobarbital. The liver was carefully extracted, rinsed in normal saline, drained on blotting paper, and carefully examined for tissue lesions. In addition, organ weight was determined.
# Rat blood samples were analyzed by a hematology auto-analyzer system (Sysmex XS-1000i®, SYSMEX®, Oak Ridge, TN, USA). The parameters quantified on this stage were: blood count-packed cell volume (PCV), red blood cell (RBC) count, hemoglobin (Hb), platelet count, white blood cell (WBC) count, mean cell hemoglobin concentration (MCHC), mean red cell volume (MCV), mean cell hemoglobin (MCH), prothrombin time (PT), and activated partial thromboplastin time (aPTT).
# Wistar rats [3] = test system: Wistar rats
# panel of five cell lines = test system: panel of five cell lines; parameters: method as in PMID 28662177; details: 5–50 µg/mL; cited from earlier work
smiles,measurement,setting,value
"C[C@@H]1O[C@@H](O[C@H]2[C@H](Oc3cc(O)c4c(c3)O[C@H](c3ccc(O)cc3)CC4=O)O[C@H](CO)[C@@H](O)[C@@H]2O)[C@H](O)[C@H](O)[C@H]1O [NAR, naringin]",percentage viability / growth of cells,VERO cells,did not change the percentage of growth
same,percentage viability / growth of cells,MDCK cells,did not change the percentage of growth
same,weight gain / body weight vs control,"Wistar rats [1]; oral, 14 days",changed the body weight
same,Erythrocytes,Wistar rats [2]; 300 mg/kg,7.79±0.27 106/µL
same,Hb,Wistar rats [2]; 300 mg/kg,14.03 ± 0.38 g/dL
same,Hto,Wistar rats [2]; 300 mg/kg,40.63±1.03%
same,Leukocytes,Wistar rats [2]; 300 mg/kg,2.65±0.30 103/µL
same,MCH,Wistar rats [2]; 300 mg/kg,18.03 ± 0.16 pg
same,MCV,Wistar rats [2]; 300 mg/kg,54.40 ± 1.92 fL
same,Platelets,Wistar rats [2]; 300 mg/kg,726.00±12.26 105/µL
same,RBCDW,Wistar rats [2]; 300 mg/kg,16.16±0.58%
same,Erythrocytes,Wistar rats [2]; 2000 mg/kg,7.41±0.11 106/µL
same,Hb,Wistar rats [2]; 2000 mg/kg,13.67 ± 0.16 g/dL
same,Hto,Wistar rats [2]; 2000 mg/kg,40.66±0.39%
same,Leukocytes,Wistar rats [2]; 2000 mg/kg,4.45±0.98 103/µL
same,MCH,Wistar rats [2]; 2000 mg/kg,18.43 ± 0.05 pg
same,MCHC,Wistar rats [2]; 2000 mg/kg,33.50 ± 0.14 g/dL
same,MCV,Wistar rats [2]; 2000 mg/kg,54.86 ± 0.38 fL
same,Platelets,Wistar rats [2]; 2000 mg/kg,553.00±239.61 105/µL
same,RBCDW,Wistar rats [2]; 2000 mg/kg,15.80±0.12%
same,ALB (albumin),"Wistar rats [3]; rat, in vivo, po, 300 mg/kg",4.50 ± 0.02 g/dL
same,ALT,"Wistar rats [3]; rat, in vivo, po, 300 mg/kg",27.57 ± 0.62 IU/L
same,AST,"Wistar rats [3]; rat, in vivo, po, 300 mg/kg",144.58 ± 17.05 IU/L
same,DB (direct bilirubin),"Wistar rats [3]; rat, in vivo, po, 300 mg/kg",0.012 ± 0.0009 mg/dL
same,GL (globulin),"Wistar rats [3]; rat, in vivo, po, 300 mg/kg",1.97 ± 0.04 g/dL
same,GLU (glucose),"Wistar rats [3]; rat, in vivo, po, 300 mg/kg",125.54 ± 14.59 mg/dL
same,IB (indirect bilirubin),"Wistar rats [3]; rat, in vivo, po, 300 mg/kg",0.024 ± 0.0007 mg/dL
same,TB (total bilirubin),"Wistar rats [3]; rat, in vivo, po, 300 mg/kg",0.037 ± 0.001 mg/dL
same,TP (total protein),"Wistar rats [3]; rat, in vivo, po, 300 mg/kg",6.48 ± 0.04 g/dL
same,ALB (albumin),"Wistar rats [3]; rat, in vivo, po, 2000 mg/kg",4.66 ± 0.16 g/dL
same,ALT,"Wistar rats [3]; rat, in vivo, po, 2000 mg/kg",38.59 ± 1.08 IU/L
same,AST,"Wistar rats [3]; rat, in vivo, po, 2000 mg/kg",128.26 ± 5.33 IU/L
same,DB (direct bilirubin),"Wistar rats [3]; rat, in vivo, po, 2000 mg/kg",0.015 ± 0.001 mg/dL
same,GL (globulin),"Wistar rats [3]; rat, in vivo, po, 2000 mg/kg",2.03 ± 0.05 g/dL
same,GLU (glucose),"Wistar rats [3]; rat, in vivo, po, 2000 mg/kg",138.55 ± 10.48 mg/dL
same,IB (indirect bilirubin),"Wistar rats [3]; rat, in vivo, po, 2000 mg/kg",0.025 ± 0.003 mg/dL
same,TB (total bilirubin),"Wistar rats [3]; rat, in vivo, po, 2000 mg/kg",0.039 ± 0.004 mg/dL
same,TP (total protein),"Wistar rats [3]; rat, in vivo, po, 2000 mg/kg",6.71 ± 0.14 g/dL
same,ALB/GL Ratio,"Wistar rats [3]; rats, oral 300 mg/kg, after 14 days, plasma",2.30 ± 0.05
same,ALB/GL Ratio,"Wistar rats [3]; rats, oral 2000 mg/kg, after 14 days, plasma",2.32 ± 0.12
same,"cytotoxicity (mitochondrial membrane potential, cell membrane integrity, nuclear morphology)",panel of five cell lines,not cytotoxic
"O=C1C[C@@H](c2ccc(O)cc2)Oc2cc(O)cc(O)c21 [NARGE, naringenin]",percentage viability / growth of cells,VERO cells,did not change the percentage of growth
same,percentage viability / growth of cells,MDCK cells,did not change the percentage of growth
same,rats' weight vs control,"Wistar rats [1]; oral 300 and 2000 mg/kg, test days 2, 3, 9 and 10",modifies rats’ weight
same,Erythrocytes,Wistar rats [2]; 300 mg/kg,6.98±1.18 106/µL
same,Hb,Wistar rats [2]; 300 mg/kg,12.00 ± 1.81 g/dL
same,Hto,Wistar rats [2]; 300 mg/kg,36.76±5.31%
same,Leukocytes,Wistar rats [2]; 300 mg/kg,5.31±0.74 103/µL
same,MCH,Wistar rats [2]; 300 mg/kg,17.40 ± 0.39 pg
same,MCHC,Wistar rats [2]; 300 mg/kg,32.53 ± 0.49 g/dL
same,MCV,Wistar rats [2]; 300 mg/kg,53.46 ± 1.87 fL
same,Platelets,Wistar rats [2]; 300 mg/kg,726.00±12.26 105/µL
same,RBCDW,Wistar rats [2]; 300 mg/kg,17.80±1.89%
same,APTT,Wistar rats [2]; 2000 mg/kg,26.26 ± 1.85 s
same,Erythrocytes,Wistar rats [2]; 2000 mg/kg,8.03±0.29 106/µL
same,Hb,Wistar rats [2]; 2000 mg/kg,14.23 ± 0.22 g/dL
same,Hto,Wistar rats [2]; 2000 mg/kg,44.63±0.44%
same,Leukocytes,Wistar rats [2]; 2000 mg/kg,5.57±1.20 103/µL
same,MCH,Wistar rats [2]; 2000 mg/kg,18.05 ± 0.39 pg
same,MCHC,Wistar rats [2]; 2000 mg/kg,31.25 ± 0.18 g/dL
same,MCV,Wistar rats [2]; 2000 mg/kg,57.85 ± 1.59 fL
same,PT,Wistar rats [2]; 2000 mg/kg,15.46 ± 0.71 s
same,RBCDW,Wistar rats [2]; 2000 mg/kg,18.93±0.14%
same,ALB (albumin),"Wistar rats [3]; rat, in vivo, po, 300 mg/kg",3.86 ± 0.10 g/dL
same,ALB/GL Ratio,"Wistar rats [3]; rat, in vivo, po, 300 mg/kg",1.26 ± 0.08
same,ALT,"Wistar rats [3]; rat, in vivo, po, 300 mg/kg",39.19 ± 0.77 IU/L
same,AST,"Wistar rats [3]; rat, in vivo, po, 300 mg/kg",156.06 ± 9.33 IU/L
same,DB (direct bilirubin),"Wistar rats [3]; rat, in vivo, po, 300 mg/kg",0.013 ± 0.007 mg/dL
same,GL (globulin),"Wistar rats [3]; rat, in vivo, po, 300 mg/kg",3.11 ± 0.25 g/dL
same,GLU (glucose),"Wistar rats [3]; rat, in vivo, po, 300 mg/kg",145.29 ± 5.47 mg/dL
same,IB (indirect bilirubin),"Wistar rats [3]; rat, in vivo, po, 300 mg/kg",0.051 ± 0.007 mg/dL
same,TB (total bilirubin),"Wistar rats [3]; rat, in vivo, po, 300 mg/kg",0.064 ± 0.005 mg/dL
same,TP (total protein),"Wistar rats [3]; rat, in vivo, po, 300 mg/kg",6.97 ± 0.30 g/dL
same,ALB (albumin),"Wistar rats [3]; rat, in vivo, po, 2000 mg/kg",4.74 ± 0.16 g/dL
same,ALB/GL Ratio,"Wistar rats [3]; rat, in vivo, po, 2000 mg/kg",1.56 ± 0.14
same,ALT,"Wistar rats [3]; rat, in vivo, po, 2000 mg/kg",57.68 ± 10.97 IU/L
same,AST,"Wistar rats [3]; rat, in vivo, po, 2000 mg/kg",149.37 ± 7.16 IU/L
same,DB (direct bilirubin),"Wistar rats [3]; rat, in vivo, po, 2000 mg/kg",0.020 ± 0.001 mg/dL
same,GL (globulin),"Wistar rats [3]; rat, in vivo, po, 2000 mg/kg",3.08 ± 0.17 g/dL
same,GLU (glucose),"Wistar rats [3]; rat, in vivo, po, 2000 mg/kg",175.56 ± 6.80 mg/dL
same,IB (indirect bilirubin),"Wistar rats [3]; rat, in vivo, po, 2000 mg/kg",0.045 ± 0.060 mg/dL
same,TB (total bilirubin),"Wistar rats [3]; rat, in vivo, po, 2000 mg/kg",0.065 ± 0.007 mg/dL
same,TP (total protein),"Wistar rats [3]; rat, in vivo, po, 2000 mg/kg",7.82 ± 0.07 g/dL
